Data from ChEMBL document CHEMBL4385620, “Inhibition of polypeptide N-acetyl-α-galactosaminyltransferases is an underlying mechanism of dietary polyphenols preventing colorectal tumorigenesis” (Bioorg Med Chem, 2019).
Activity calls are given as the source filed them. The calls are words filed in the database; no cut-off is given here.

What was measured:
[1] = target: T1, Polypeptide N-acetylgalactosaminyltransferase 2 (Homo sapiens, UniProt Q10471); assay: Non-competitive inhibition of human recombinant FLAG-tagged ppGalNAcT2 expressed in HEK293 cells using UDP-GalNAc as substrate by HPLC-based enzyme assay
T1 sequence (Q10471 whole entry): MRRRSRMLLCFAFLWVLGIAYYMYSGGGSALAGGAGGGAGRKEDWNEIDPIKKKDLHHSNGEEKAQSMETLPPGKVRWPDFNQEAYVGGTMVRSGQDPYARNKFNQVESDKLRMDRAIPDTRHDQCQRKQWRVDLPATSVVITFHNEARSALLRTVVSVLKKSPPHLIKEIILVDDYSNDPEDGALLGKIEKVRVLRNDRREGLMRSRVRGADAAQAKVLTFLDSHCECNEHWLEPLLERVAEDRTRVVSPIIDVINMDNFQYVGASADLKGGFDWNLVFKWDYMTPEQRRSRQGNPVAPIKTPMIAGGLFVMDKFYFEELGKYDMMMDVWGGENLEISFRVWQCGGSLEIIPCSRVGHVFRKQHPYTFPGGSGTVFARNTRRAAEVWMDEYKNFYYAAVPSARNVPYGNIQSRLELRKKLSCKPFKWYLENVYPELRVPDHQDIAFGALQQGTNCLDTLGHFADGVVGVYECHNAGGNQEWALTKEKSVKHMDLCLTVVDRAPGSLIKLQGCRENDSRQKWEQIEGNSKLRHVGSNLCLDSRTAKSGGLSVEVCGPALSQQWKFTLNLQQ

[2] = target: T2, Polypeptide N-acetylgalactosaminyltransferase 10 (Homo sapiens, UniProt Q86SR1); assay: Inhibition of catalytic activity of ppGalNAcT10 (unknown origin) using EA2 peptide as substrate incubated for 30 mins by HPLC-based enzyme assay
T2 sequence (Q86SR1 whole entry): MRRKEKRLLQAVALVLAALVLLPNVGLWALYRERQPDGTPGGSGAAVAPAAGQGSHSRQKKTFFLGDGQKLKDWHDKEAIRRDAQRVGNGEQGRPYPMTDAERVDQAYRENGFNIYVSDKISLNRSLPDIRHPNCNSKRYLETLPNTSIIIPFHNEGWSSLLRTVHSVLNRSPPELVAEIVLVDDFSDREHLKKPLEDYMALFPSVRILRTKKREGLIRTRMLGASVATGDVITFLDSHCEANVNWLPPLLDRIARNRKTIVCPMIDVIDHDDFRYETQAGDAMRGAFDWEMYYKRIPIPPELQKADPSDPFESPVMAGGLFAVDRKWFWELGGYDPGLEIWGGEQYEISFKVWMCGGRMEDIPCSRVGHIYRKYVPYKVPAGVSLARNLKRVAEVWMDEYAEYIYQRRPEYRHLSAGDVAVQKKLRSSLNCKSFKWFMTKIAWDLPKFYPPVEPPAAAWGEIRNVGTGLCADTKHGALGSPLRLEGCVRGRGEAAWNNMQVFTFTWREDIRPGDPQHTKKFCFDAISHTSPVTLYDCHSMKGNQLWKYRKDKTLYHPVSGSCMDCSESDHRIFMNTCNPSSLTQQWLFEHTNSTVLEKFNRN

[3] = test system: HT-29; assay: Effect on ppGalNAcT6 expression level in human HT-29 cells at 40 uM incubated for 48 hrs by Q-PCR analysis; type: ADME, cell-based; details: ht-29, 48 h
[4] = test system: HT-29; assay: Effect on ppGalNAcT1 expression level in human HT-29 cells at 40 uM incubated for 48 hrs by Q-PCR analysis; type: ADME, cell-based; details: ht-29, 48 h
[5] = test system: HCT-116; assay: Cytotoxicity against human HCT116 cells at 40 uM incubated for 48 hrs by CCK-8 assay; type: cell-based; details: hct-116, 48 h
[6] = test system: HT-29; assay: Effect on ppGalNAcT5 expression level in human HT-29 cells at 40 uM incubated for 48 hrs by Q-PCR analysis; type: ADME, cell-based; details: ht-29, 48 h
[7] = test system: HT-29; assay: Effect on ppGalNAcT10 expression level in human HT-29 cells at 40 uM incubated for 48 hrs by Q-PCR analysis; type: ADME, cell-based; details: ht-29, 48 h
[8] = test system: HCT-116; assay: Anti-invasive activity in human HCT116 cells at 40 uM incubated for 48 hrs by crystal violet staining based method; type: functional, cell-based
[9] = test system: HT-29; assay: Effect on N-glycans in human HT-29 cells assessed as change in ConA expression at 40 uM incubated for 48 hrs by Western blot analysis; type: ADME, cell-based; details: ht-29, 48 h
[10] = target: T3, Polypeptide N-acetylgalactosaminyltransferase 6 (Homo sapiens, UniProt Q8NCL4); assay: Inhibition of catalytic activity of ppGalNAcT6 (unknown origin) using EA2 peptide as substrate incubated for 30 mins by HPLC-based enzyme assay
T3 sequence (Q8NCL4 whole entry): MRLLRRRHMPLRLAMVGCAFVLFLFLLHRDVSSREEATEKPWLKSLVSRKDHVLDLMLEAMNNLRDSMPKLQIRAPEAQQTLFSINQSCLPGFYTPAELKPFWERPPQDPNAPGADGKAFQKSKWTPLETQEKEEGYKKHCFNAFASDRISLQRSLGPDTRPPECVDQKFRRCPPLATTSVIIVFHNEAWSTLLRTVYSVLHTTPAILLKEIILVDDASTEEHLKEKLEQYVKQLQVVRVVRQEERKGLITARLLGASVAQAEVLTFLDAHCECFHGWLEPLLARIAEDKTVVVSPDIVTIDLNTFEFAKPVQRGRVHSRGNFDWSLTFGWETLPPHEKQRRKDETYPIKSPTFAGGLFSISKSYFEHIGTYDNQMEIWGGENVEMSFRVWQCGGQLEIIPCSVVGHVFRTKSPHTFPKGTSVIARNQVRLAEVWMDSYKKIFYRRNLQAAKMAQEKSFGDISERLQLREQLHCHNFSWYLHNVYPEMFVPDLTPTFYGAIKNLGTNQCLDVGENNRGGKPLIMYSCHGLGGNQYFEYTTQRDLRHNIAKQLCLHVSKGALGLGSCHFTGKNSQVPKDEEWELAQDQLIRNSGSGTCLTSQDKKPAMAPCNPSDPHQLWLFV

[11] = test system: HT-29; assay: Effect on PDPN expression level in human HT-29 cells at 40 uM incubated for 48 hrs by Q-PCR analysis; type: ADME, cell-based; details: ht-29, 48 h
[12] = test system: RKO; assay: Cytotoxicity against human RKO cells at 40 uM incubated for 48 hrs by CCK-8 assay; type: cell-based
[13] = target: T4, Polypeptide N-acetylgalactosaminyltransferase 3 (Homo sapiens, UniProt Q14435); assay: Inhibition of catalytic activity of ppGalNAcT3 (unknown origin) using EA2 peptide as substrate incubated for 30 mins by HPLC-based enzyme assay
T4 sequence (Q14435 whole entry): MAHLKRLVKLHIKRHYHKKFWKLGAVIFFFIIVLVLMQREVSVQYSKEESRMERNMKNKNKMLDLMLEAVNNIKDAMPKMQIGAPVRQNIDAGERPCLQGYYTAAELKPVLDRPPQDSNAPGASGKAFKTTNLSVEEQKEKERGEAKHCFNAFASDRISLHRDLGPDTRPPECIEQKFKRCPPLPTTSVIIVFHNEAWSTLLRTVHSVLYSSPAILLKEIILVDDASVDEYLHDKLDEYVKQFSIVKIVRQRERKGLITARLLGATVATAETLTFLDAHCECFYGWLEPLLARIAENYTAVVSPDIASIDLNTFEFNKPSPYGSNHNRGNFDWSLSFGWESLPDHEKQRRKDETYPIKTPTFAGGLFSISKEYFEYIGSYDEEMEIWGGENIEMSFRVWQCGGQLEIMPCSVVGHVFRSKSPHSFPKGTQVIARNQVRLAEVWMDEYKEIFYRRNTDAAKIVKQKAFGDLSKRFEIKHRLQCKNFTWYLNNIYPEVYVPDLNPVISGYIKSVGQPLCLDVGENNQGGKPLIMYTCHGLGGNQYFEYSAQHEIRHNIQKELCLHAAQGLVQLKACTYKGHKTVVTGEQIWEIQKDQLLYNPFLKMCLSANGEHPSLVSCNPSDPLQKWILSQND

[14] = target: Polypeptide N-acetylgalactosaminyltransferase 2 (Homo sapiens, UniProt Q10471, W282A); assay: Inhibition of catalytic activity of human recombinant FLAG-tagged ppGalNAcT2 W282A mutant expressed in HEK293 cells using EA2 peptide as substrate by HPLC-based enzyme assay
Polypeptide N-acetylgalactosaminyltransferase 2 (Homo sapiens, UniProt Q10471, W282A), sequence (Q10471 whole entry W282A): as the sequence (Q10471 whole entry) above, with W282A counted along it

[15] = target: T1, Polypeptide N-acetylgalactosaminyltransferase 2; assay: Inhibition of catalytic activity of human recombinant FLAG-tagged ppGalNAcT2 using Muc7 peptide as substrate incubated for 30 mins by HPLC-based enzyme assay
[16] = target: Polypeptide N-acetylgalactosaminyltransferase 14 (Homo sapiens, UniProt Q96FL9); assay: Inhibition of catalytic activity of ppGalNAcT14 (unknown origin) using EA2 peptide as substrate incubated for 30 mins by HPLC-based enzyme assay
Polypeptide N-acetylgalactosaminyltransferase 14, sequence (Q96FL9 whole entry): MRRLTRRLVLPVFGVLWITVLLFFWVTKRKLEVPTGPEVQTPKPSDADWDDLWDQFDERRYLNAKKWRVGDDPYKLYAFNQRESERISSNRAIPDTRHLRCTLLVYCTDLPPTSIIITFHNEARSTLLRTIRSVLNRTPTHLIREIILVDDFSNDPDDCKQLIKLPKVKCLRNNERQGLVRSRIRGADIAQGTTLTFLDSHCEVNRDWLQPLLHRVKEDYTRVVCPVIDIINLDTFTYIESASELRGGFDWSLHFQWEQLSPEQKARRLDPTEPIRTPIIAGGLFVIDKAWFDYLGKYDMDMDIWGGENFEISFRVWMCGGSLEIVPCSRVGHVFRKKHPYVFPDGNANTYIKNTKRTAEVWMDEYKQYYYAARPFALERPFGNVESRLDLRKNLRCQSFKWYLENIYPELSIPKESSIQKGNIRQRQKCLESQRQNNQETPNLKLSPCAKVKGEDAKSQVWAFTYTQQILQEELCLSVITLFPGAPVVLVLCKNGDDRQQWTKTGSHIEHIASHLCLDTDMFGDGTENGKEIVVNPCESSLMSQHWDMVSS

- Ki [1]: 6150 nM
- IC50 [2]: 330 nM
- IC50 [10]: 1830 nM
- IC50 [13]: 1610 nM
- IC50 [14]: 3120 nM
- IC50 [15]: 1250 nM
- IC50 [16]: 460 nM
SMILES: O=c1oc2c(O)c(O)ccc2c2cc(O)c(O)cc12
- Activity [3]: Non-Toxic
- Activity [4]: Non-Toxic
- Activity [5]: Non-Toxic
- Activity [6]: Non-Toxic
- Activity [7]: Non-Toxic
- Activity [8]: Active
- Activity [9]: Non-Toxic
- Activity [11]: Non-Toxic
- Activity [12]: Non-Toxic
